# Test results taken from article PMC8041284, “Tunable Methacrylamides for Covalent Ligand Directed Release Chemistry” (Journal of the American Chemical Society, 2021).
# Like-named read-outs stand apart in the source and are kept apart here. Where a SMILES comes first, the peptide text is derived from it. [ ]: non-standard residue; d: D form. pGlu = O=C1CC[C@@H](C(=O)O)N1; Thz = O=C(O)[C@@H]1CSCN1
# Target: BTK (Homo sapiens, UniProt Q06187)
# Test: biochemical
# [1] = read-out: BTK inhibition (%), 0.75 uM BTK, […] probe 3l, 15 min preincubation
# Chain of BTK (Q06187 402-655 limits assumed): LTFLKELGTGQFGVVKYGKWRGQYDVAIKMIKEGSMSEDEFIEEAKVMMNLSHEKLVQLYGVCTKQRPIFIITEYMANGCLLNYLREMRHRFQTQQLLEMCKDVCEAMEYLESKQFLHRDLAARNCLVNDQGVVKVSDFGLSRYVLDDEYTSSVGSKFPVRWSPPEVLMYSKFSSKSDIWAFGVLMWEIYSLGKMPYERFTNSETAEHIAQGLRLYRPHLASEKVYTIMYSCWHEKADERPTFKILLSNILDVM
SMILES,inhibition at 10 µM [1] [%],inhibition at 10 µM (read-out: BTK inhibition (%)) [%]
C=C(C)[C@H]1CC=C(C)CC1 [PCM-0216628],5.4,–
Cc1cc(/C=C/C#N)cc(C)c1Nc1ccnc(Nc2ccc(C#N)cc2)n1 [PCM-0215269],19.3,–
CCCOc1ccc2nc(NC(=O)OC)[nH]c2c1 [PCM-0086075],10.2,–
O=C1O[C@H]([C@@H](O)CO)C(O)=C1OP(=O)(O)O [PCM-0215970],-4.3,–
COC1[C@@H](O)[C@@H](O)C(O)[C@H](O)[C@H]1O (some centres unmarked) [PCM-0215037],-11,–
COc1cc2c(cc1O)C[C@@H]1NCCc3cc(OC)c(O)c-2c31 [PCM-0216385],6.2,–
O=c1cc(-c2ccc(O)cc2)oc2cc(O)c(O)c(O)c12 [PCM-0216408],70.3,–
COc1cc2c(cc1O)CC[C@@H]1[C@@H]2CC[C@]2(C)[C@@H](O)CC[C@@H]12 [PCM-0214607],-2.8,–
CO[C@@H]1[C@@H](OC(N)=O)[C@@H](O)[C@H](Oc2ccc3c(O)c(NC(=O)c4ccc(O)c(CC=C(C)C)c4)c(=O)oc3c2C)OC1(C)C [PCM-0086469],7,–
O=c1c(-c2ccc(O)cc2)coc2c([C@@H]3O[C@H](CO)[C@@H](O)[C@H](O)[C@H]3O)c(O)ccc12 [PCM-0094877],-0.8,–
CC(=O)Nc1cccc(-n2c(=O)n(C3CC3)c(=O)c3c(Nc4ccc(I)cc4F)n(C)c(=O)c(C)c32)c1 [PCM-0095350],-10.3,–
CCCNC(C)C(=O)Nc1c(C)csc1C(=O)OC (centres unmarked) [PCM-0086324],-13.2,–
COCC1(CO)C(=O)C2CCN1CC2 (centres unmarked) [PCM-0215751],0,–
Cc1cc(Nc2ncnc3ccc(-c4ccc(CNCCS(C)(=O)=O)o4)cc23)ccc1Oc1ccn2ncnc2c1 [PCM-0095494],-21.4,–
Cc1cc(C(N)=O)ccc1-n1c(CCC(=O)O)ccc1-c1ccc(-n2ccnc2)cc1 [PCM-0215346],6.9,–
CC1(C)CC[C@]2(C(=O)O)[C@H](O)C[C@]3(C)C(=CC[C@@H]4[C@@]5(C)CC[C@H](O)[C@@](C)(C=O)[C@@H]5CC[C@]43C)[C@@H]2C1 [PCM-0216608],-8.5,–
CCCc1cc(-c2nc(-c3ccc(C)cc3)cs2)ccn1 [PCM-0215677],6.9,–
Cc1ccc(C=NNC(=O)c2ccccc2Oc2ccccc2)o1 [PCM-0215777],-16.2,–
CCC1(c2ccc(N)cc2)CCC(=O)NC1=O (centres unmarked) [PCM-0064565],-3.4,–
COc1cccc2cc(-c3nc(C4CCC(C(=O)O)CC4)n4ncnc(N)c34)[nH]c12 (centres unmarked) [PCM-0095482],28.3,–
COCCCOc1cc(C[C@@H](C[C@H](N)[C@@H](O)C[C@H](C(=O)NCC(C)(C)C(N)=O)C(C)C)C(C)C)ccc1OC [PCM-0214569],7,–
CC1(C)C=Cc2cc(-c3coc4cc(O)ccc4c3=O)ccc2O1 [PCM-0216531],28.6,–
Cc1ccc2c(c1)C(=O)[C@]1(O)CCN(c3ccccc3)C1=N2 [PCM-0095585],-6.9,–
O[C@@H]1[C@H](O)[C@@H](O)CO[C@H]1O [PCM-0215084],0.8,–

SMILES,inhibition at 10 µM [1] [%],inhibition at 10 µM (read-out: BTK inhibition (%)) [%]
CCCNC(=O)[C@H]1O[C@@H]1C(=O)N[C@H](C(=O)N1CCC[C@H]1C(=O)OC)[C@@H](C)CC [PCM-0215739],-31.7,–
O=S(=O)(O)CCS [PCM-0086246],-3.1,–
CNC(=O)c1cc(Oc2ccc(NC(=O)Nc3ccc(Cl)c(C(F)(F)F)c3)c(F)c2)ccn1 [PCM-0095050],13.1,–
Cc1ccc(C(=O)Nc2ccc(CN3CCN(C)CC3)c(C(F)(F)F)c2)cc1C#Cc1cnc2cccnn12 [PCM-0095174],92.4,–
CCC(=O)Nc1cccc(Oc2nc(Nc3ccc(N4CCN(C)CC4)cc3OC)ncc2Cl)c1 [PCM-0095726],-2.1,–
C=CC(=O)N1C/C(=C\c2ccc([N+](=O)[O-])cc2)C(=O)/C(=C/c2ccc([N+](=O)[O-])cc2)C1 [PCM-0214766],-15.6,–
O=C(N/N=C/c1cc(O)c(O)cc1O)c1cc2ccccc2cc1O [PCM-0215496],77.2,–
Cc1onc(-c2ccccc2)c1C(=O)N[C@@H]1C(=O)N2[C@@H]1SC(C)(C)[C@@H]2C(=O)O [PCM-0215187],21.3,–
Cc1ccc(C(=O)Nc2ccc(CN3CCN(C)CC3)c(C(F)(F)F)c2)cc1C#Cc1cnc2[nH]ncc2c1 [PCM-0215209],114,–
CCCCCCCC/C=C\CCCCCCCC(=O)OCC [PCM-0216145],6.9,–
Cc1cc(C)cc(Oc2ccc(CNC(=O)[C@H](C)N)cc2C)c1 [PCM-0215829],-17.8,–
N#CC(C#N)=Cc1ccc(O)c(O)c1 [PCM-0064867],54.5,–
O=c1cc(-c2ccc(O)cc2)oc2c([C@@H]3O[C@H](CO)[C@@H](O)[C@H](O)[C@H]3O)c(O)cc(O)c12 [PCM-0216454],26.3,–
COc1ccc2cc1Oc1ccc(cc1)C[C@H]1c3cc(c(OC)cc3CCN1C)Oc1c(O)c(OC)cc3c1[C@H](C2)N(C)CC3 [PCM-0214877],27.2,–
CCCCCCCCCCCCCCCCCCOP(=O)([O-])OC1CC[N+](C)(C)CC1 [PCM-0215183],-46.8,–
C[C@@H]1O[C@@H](O[C@H]2[C@H](O[C@H]3CC[C@@]4(C)[C@@H](CC[C@]5(C)[C@@H]4CC=C4[C@@H]6CC(C)(C)CC[C@]6(C(=O)O[C@@H]6O[C@H](CO[C@@H]7O[C@H](CO)[C@@H](O)[C@H](O)[C@H]7O)[C@@H](O)[C@H](O)[C@H]6O)CC[C@]45C)[C@]3(C)CO)OC[C@H](O)[C@@H]2O)[C@H](O)[C@H](O[C@@H]2O[C@H](CO)[C@@H](O[C@@H]3O[C@H](CO)[C@@H](O)[C@H](O)[C@H]3O)[C@H](O)[C@H]2O)[C@H]1O [PCM-0215007],-12.5,–
O=C1CC[C@@H](C(=O)N2CSC[C@H]2C(=O)O)N1 [PCM-0090672] ([pGlu]-[Thz]-OH),11.7,–
CCOCCn1c(C2CCN(CCc3ccc(C(C)(C)C(=O)O)cc3)CC2)nc2ccccc21 [PCM-0215887],10.2,–
N#CCNC(=O)c1ccc(-c2ccnc(Nc3ccc(N4CCOCC4)cc3)n2)cc1 [PCM-0095254],16.6,–
CC/C(=C(\c1ccccc1)c1ccc(OCCN(C)C)cc1)c1ccccc1 [PCM-0064738],7.6,–
CCC1(c2cccc(O)c2)CCCCN(C)C1 (centres unmarked) [PCM-0086257],–,7.8
C[C@@H]1CC[C@]2(C(=O)O[C@@H]3O[C@H](CO)[C@@H](O)[C@H](O)[C@H]3O)CC[C@]3(C)C(=CC[C@@H]4[C@@]5(C)CC[C@H](O)[C@@](C)(CO)[C@@H]5CC[C@]43C)[C@@H]2[C@]1(C)O [PCM-0216572],-2.3,–
Cn1cnc([N+](=O)[O-])c1Sc1ncnc2nc[nH]c12 [PCM-0064491],-4.8,–
CC1=NCC[C@@H](C(=O)O)N1 [PCM-0216558],-13.6,–

SMILES,inhibition at 10 µM [1] [%],inhibition at 10 µM (read-out: BTK inhibition (%)) [%]
O=c1[nH]cc(F)c(=O)[nH]1 [PCM-0065247],-0.7,–
CC(C)=CCC[C@](C)(O[C@@H]1O[C@H](CO[C@@H]2O[C@H](CO)[C@@H](O)[C@H](O)[C@H]2O)[C@@H](O)[C@H](O)[C@H]1O)[C@H]1CC[C@]2(C)[C@@H]1[C@H](O)C[C@@H]1[C@@]3(C)CC[C@H](O[C@@H]4O[C@H](CO)[C@@H](O)[C@H](O)[C@H]4O)C(C)(C)[C@@H]3CC[C@]12C [PCM-0216463],4.6,–
Cc1nc(Nc2n[nH]c3c2CN(C(=O)N[C@H](CN(C)C)c2ccccc2)C3(C)C)c2sccc2n1 [PCM-0095819],72.4,–
O=c1ccc2ccc(O)cc2[nH]1 [PCM-0216227],7.8,–
C=CC[N+]1([C@H]2C[C@H]3[C@@H]4CC[C@H]5C[C@H](O)[C@@H](N6CCOCC6)C[C@]5(C)[C@H]4CC[C@]3(C)[C@H]2OC(C)=O)CCCC1 [PCM-0214619],-24.1,–
CC(C)Oc1ccc2c(=O)c(-c3ccccc3)coc2c1 [PCM-0094837],17.9,–
COc1cc(CO)cc(OC)c1O [PCM-0215146],-6.2,–
CC(C)(O[C@@H]1O[C@H](CO)[C@@H](O)[C@H](O)[C@H]1O)[C@H]1Cc2cc3ccc(=O)oc3cc2O1 [PCM-0216505],-1.5,–
O=C(O)c1cc(C(=O)O)c2c(n1)C(=O)C(=O)c1cc(C(=O)O)[nH]c1-2 [PCM-0216638],-0.8,–
CCOC(=O)OC(C)OC1=C(C(=O)Nc2ccccn2)N(C)S(=O)(=O)c2ccccc21 (centres unmarked) [PCM-0090753],2.1,–
CO[C@H]1/C=C\C=C(/C)C(=O)NC2=CC(=O)C(NCCN(C)C)=C(C[C@@H](C)C[C@H](OC)[C@H](O)[C@@H](C)/C=C(\C)[C@@H]1OC(N)=O)C2=O [PCM-0094961],28.3,–
O=C1NC(=O)/C(=C/c2cccc(C(F)(F)F)c2)S1 [PCM-0095598],4.8,–
O=C(Nc1ccccc1-c1cn2c(CN3CC[C@@H](O)C3)csc2n1)c1ccc2ccccc2c1 [PCM-0215757],-1.5,–
CCCN(CCc1cccs1)[C@H]1CCc2c(O)cccc2C1 [PCM-0214799],14.8,–
CC(=O)O[C@]1(C(C)=O)CC[C@H]2[C@@H]3C[C@H](C)C4=CC(=O)CC[C@]4(C)[C@H]3CC[C@@]21C [PCM-0095356],-18.7,–
Nc1nccc(Oc2ccc3c(C(=O)Nc4cccc(C(F)(F)F)c4)cccc3c2)n1 [PCM-0215714],-2.8,–
C[C@H]1[C@H](NC(=O)/C(=N\OC(C)(C)C(=O)O)c2csc(N)n2)C(=O)N1S(=O)(=O)O [PCM-0085816],-15.6,–
N#Cc1ccc(C(c2ccc(C#N)cc2)n2cncn2)cc1 [PCM-0086304],-2.1,–
COCCCOc1ccnc(C[S+]([O-])c2nc3ccccc3[nH]2)c1C (centres unmarked) [PCM-0214837],-10.1,–
CCOP(=O)(OCC)C(=Cc1cc(C(C)(C)C)c(O)c(C(C)(C)C)c1)P(=O)(OCC)OCC [PCM-0215676],–,-11.6
CCc1cccc(CC)c1NC(=O)N1Cc2[nH]nc(NC(=O)c3ccc(N4CCN(C)CC4)cc3)c2C1 [PCM-0095127],65.5,–
COc1cc(C[C@@H](COC2OC(CO)C(O)C(O)C2O)[C@@H](COC2OC(CO)C(O)C(O)C2O)Cc2ccc(O)c(OC)c2)ccc1O (some centres unmarked) [PCM-0214976],2.3,–
Cc1cc(NC(=O)c2cccc(NC(=O)/C=C/CN(C)C)c2)ccc1Nc1nccc(-c2cccnc2)n1 [PCM-0095741],9.7,–
